Among the data in US9573930B2 (Quanticel Pharmaceuticals, Inc., priority 2014, dated 2017) are IC50 values, retold here.

The structures appear in SMILES notation.

This experiment concerns the target full-length human LSD1 (Homo sapiens (Human), UniProt O60341). Nature of the experiment: In vitro enzyme inhibition assay LSD-1 (TR-FRET). The settings on record: H3K4me1-biotin peptide. The format is biochemical. The procedure: This assay determines the ability of a test compound to inhibit LSD1 demethylase activity.
The enzymatic assay of LSD1 activity is based on Time Resolved-Fluorescence Resonance Energy Transfer (TR-FRET) detection.
The ability of the compounds disclosed herein to inhibit LSD1 activity was quantified and the respective IC50 value was determined.
As to `COc1ccc(-c2c(-c3ccc(C#N)cc3)nc(NC[C@H]3CCNC3)n(C)c2=O)cc1F` [Example 44, 4-{5-(3-fluoro-4-methoxy-phenyl)-1-methyl-6-oxo-2-[(3S)-(pyrrolidin-3-ylmethyl)-amino]-1,6-dihydro-pyrimidin-4-yl}-benzonitrile], the IC50 was less than 100 nM. Take `COc1ccc(-c2c(-c3ccc(C#N)c(F)c3)nc(NC[C@H]3CCNC3)n(C)c2=O)cc1` [Example 51, 2-fluoro-4-{5-(4-methoxy-phenyl)-1-methyl-6-oxo-2-[(3S)-(pyrrolidin-3-ylmethyl)-amino]-1,6-dihydro-pyrimidin-4-yl}-benzonitrile]: the IC50 was less than 100 nM. To `CNC1CCN(c2nc(-c3ccc(C#N)c(F)c3)c(-c3ccc(OC)c(F)c3)c(=O)n2C)CC1` [Example 12, 2-fluoro-4-[5-(3-fluoro-4-methoxy-phenyl)-1-methyl-2-(4-methylamino-piperidin-1-yl)-6-oxo-1,6-dihydro-pyrimidin-4-yl]-benzonitrile] belongs less than 100 nM; to `COc1ccc(-c2c(-c3ccc(C#N)c(F)c3)nc(N3CCC(N(C)C)CC3)n(C)c2=O)cn1` [Example 92, 4-[2-[4-(dimethylamino)piperidin-1-yl]-5-(6-methoxypyridin-3-yl)-1-methyl-6-oxopyrimidin-4-yl]-2-fluorobenzonitrile], less than 100 nM.

In the case of `Cn1c(N2CCC(N)CC2)nc(-c2ccc(C#N)c(F)c2)c(C#N)c1=O` [Example 19, 2-(4-amino-piperidin-1-yl)-4-(4-cyano-3-fluoro-phenyl)-1-methyl-6-oxo-1,6-dihydro-pyrimidine-5-carbonitrile], the IC50 is less than 100 nM. To `COCc1ccc(-c2c(-c3ccc(C#N)c(F)c3)nc(N3CCC(N)CC3)n(C)c2=O)cc1` [Example 107, 4-[2-(4-aminopiperidin-1-yl)-5-[4-(methoxymethyl)phenyl]-1-methyl-6-oxopyrimidin-4-yl]-2-fluorobenzonitrile] belongs less than 100 nM; to `Cn1c(N2CCC(N)CC2)nc(-c2ccccc2)c(-c2ccc3c(ccn3C)c2)c1=O` [Example 114, 2-(4-amino-piperidin-1-yl)-3-methyl-5-(1-methyl-1H-indol-5-yl)-6-phenyl-3H-pyrimidin-4-one], greater than 10000 nM. Under `CNc1ccc(-c2c(-c3ccc(C#N)c(F)c3)nc(N3CCC(N)CC3)n(C)c2=O)cc1` [Example 90, 4-[2-(4-aminopiperidin-1-yl)-1-methyl-5-[4-(methylamino)phenyl]-6-oxopyrimidin-4-yl]-2-fluorobenzonitrile] stands less than 100 nM. To `COc1ccc(-c2c(-c3ccc(C#N)c(F)c3)nc(N3CCC[C@H](N)C3)n(C)c2=O)cc1` [Example 31, 4-[2-((3S)-3-amino-piperidin-1-yl)-5-(4-methoxy-phenyl)-1-methyl-6-oxo-1,6-dihydro-pyrimidin-4-yl]-2-fluoro-benzonitrile] belongs less than 100 nM. For `COc1ccc(-c2c(-c3ccc(C#N)c(F)c3)nc(NC3CCNCC3)n(C)c2=O)cc1` [Example 53, 2-fluoro-4-[5-(4-methoxy-phenyl)-1-methyl-6-oxo-2-(piperidin-4-ylamino)-1,6-dihydro-pyrimidin-4-yl]-benzonitrile], the IC50 is less than 100 nM. To `COc1ccc(-c2c(-c3ccc(Cl)c(F)c3)nc(N3CCC(N)CC3)n(C)c2=O)cc1` [Example 111, 2-(4-amino-piperidin-1-yl)-6-(4-chloro-3-fluoro-phenyl)-5-(4-methoxy-phenyl)-3-methyl-3H-pyrimidin-4-one] belongs 100 to 1000 nM; to `Cn1c(N2CCC(N)CC2)nc(-c2ccc(C#N)c(F)c2)c(-c2cc(F)cc(F)c2)c1=O` [Example 103, 4-[2-(4-aminopiperidin-1-yl)-5-(3,5-difluorophenyl)-1-methyl-6-oxopyrimidin-4-yl]-2-fluorobenzonitrile], less than 100 nM; to `COc1ccc(-c2c(-c3ccc(C#N)c(F)c3)nc(N3CCC[C@@H](N)C3)n(C)c2=O)cc1` [Example 30, 4-[2-((3R)-3-aminopiperidyl)-5-(4-methoxyphenyl)-1-methyl-6-oxohydropyrimidin-4-yl]-2-fluorobenzenecarbonitrile], less than 100 nM.

For the compound `Cn1c(N2CCC(N)CC2)nc(-c2ccc(C#N)c(F)c2)c(-c2ccc(F)cc2)c1=O` [Example 101, 4-[2-(4-aminopiperidin-1-yl)-5-(4-fluorophenyl)-1-methyl-6-oxopyrimidin-4-yl]-2-fluorobenzonitrile], the IC50 was less than 100 nM.

`CNc1ccc(-c2c(-c3ccc(C#N)c(F)c3)nc(N3CCC(N)CC3)n(C)c2=O)cc1F` [Example 91, 4-[2-(4-aminopiperidin-1-yl)-5-[3-fluoro-4-(methylamino)phenyl]-1-methyl-6-oxopyrimidin-4-yl]-2-fluorobenzonitrile] returned an IC50 of less than 100 nM. The compound `CN(C)c1ccc(-c2c(-c3ccc(C#N)c(F)c3)nc(N3CCC(N)CC3)n(C)c2=O)cn1` [Example 57, 4-[2-(4-amino-piperidin-1-yl)-5-(6-dimethylamino-pyridin-3-yl)-1-methyl-6-oxo-1,6-dihydro-pyrimidin-4-yl]-2-fluoro-benzonitrile] showed an IC50 of less than 100 nM.

`COc1ccc(-c2c(-c3ccc(C#N)c(F)c3)nc(N3CCNCC3)n(C)c2=O)cc1F` [Example 47, 2-fluoro-4-[5-(3-fluoro-4-methoxy-phenyl)-1-methyl-6-oxo-2-piperazin-1-yl-1,6-dihydro-pyrimidin-4-yl]-benzonitrile] yielded an IC50 of less than 100 nM. Under `N#Cc1ccc(-c2cc(=O)n(CC3CC3)c(N3CCC(N)CC3)n2)cc1F` [Example 109, 4-[2-(4-amino-piperidin-1-yl)-1-cyclopropylmethyl-6-oxo-1,6-dihydro-pyrimidin-4-yl]-2-fluoro-benzonitrile] stands 100 to 1000 nM; under `Cn1c(N2CCC(N)CC2)nc(-c2ccc(C#N)c(F)c2)c(-c2ccc3occc3c2)c1=O` [Example 18, 4-[2-(4-amino-piperidin-1-yl)-5-benzofuran-5-yl-1-methyl-6-oxo-1,6-dihydro-pyrimidin-4-yl]-2-fluoro-benzonitrile], less than 100 nM. To `Cn1c(N2CCC(N)CC2)nc(-c2ccc(F)cc2)c(-c2ccc3c(ccn3C)c2)c1=O` [Example 113, 2-(4-amino-piperidin-1-yl)-6-(4-fluoro-phenyl)-3-methyl-5-(1-methyl-1H-indol-5-yl)-3H-pyrimidin-4-one] belongs 100 to 1000 nM. To `COc1ccc(-c2c(-c3ccc(C#N)c(F)c3)nc(N3CC(CN)C3)n(C)c2=O)cc1` [Example 69, 4-[2-(3-aminomethyl-azetidin-1-yl)-5-(4-methoxy-phenyl)-1-methyl-6-oxo-1,6-dihydro-pyrimidin-4-yl]-2-fluoro-benzonitrile] belongs less than 100 nM; to `CN(C)C1CCN(c2nc(-c3ccc(C#N)c(F)c3)c(-c3ccc4cn[nH]c4c3)c(=O)n2C)CC1` [Example 84, 4-[2-(4-dimethylamino-piperidin-1-yl)-5-(2H-indazol-6-yl)-1-methyl-6-oxo-1,6-dihydro-pyrimidin-4-yl]-2-fluoro-benzonitrile], less than 100 nM; to `CNC(=O)c1ccc(-c2c(-c3ccc(C#N)cc3)nc(N3CCC(N)CC3)n(C)c2=O)cc1F` [Example 40, {4-[2-(4-aminopiperidyl)-6-(4-cyanophenyl)-3-methyl-4-oxo(3-hydropyrimidin-5-yl)]-2-fluorophenyl}-N-methylcarboxamide], less than 100 nM.

Regarding `COc1ncc(-c2c(-c3ccc(C#N)c(F)c3)nc(N3CCC(N)CC3)n(C)c2=O)cc1F` [Example 26, 4-[2-(4-aminopiperidyl)-5-(5-fluoro-6-methoxy(3-5,6-dihydropyridyl))-1-methyl-6-oxohydropyrimidin-4-yl]-2-fluorobenzenecarbonitrile], the IC50 is less than 100 nM. Under `CCOc1ccc(-c2c(-c3ccc(C#N)c(F)c3)nc(N3CCC(N)CC3)n(C)c2=O)cn1` [Example 94, 4-[2-(4-aminopiperidin-1-yl)-5-(6-ethoxypyridin-3-yl)-1-methyl-6-oxopyrimidin-4-yl]-2-fluorobenzonitrile] stands less than 100 nM; under `COc1ccc(-c2c(-c3ccc(C#N)c(F)c3)nc(N3CC[C@H](N)[C@H](F)C3)n(C)c2=O)cc1` [Example 79, 4-[2-((4S,3R)-4-amino-3-fluoro-piperidin-1-yl)-5-(4-methoxy-phenyl)-1-methyl-6-oxo-1,6-dihydro-pyrimidin-4-yl]-2-fluoro-benzonitrile], less than 100 nM; under `COc1ccc(-c2c(-c3ccc(C#N)c(F)c3)nc(N(C)C3CCNCC3)n(C)c2=O)cc1` [Example 55, 2-fluoro-4-[5-(4-methoxy-phenyl)-1-methyl-2-(methyl-piperidin-4-yl-amino)-6-oxo-1,6-dihydro-pyrimidin-4-yl]-benzonitrile], less than 100 nM. Under `Cn1c(N2CCC(N)CC2)nc(-c2ccc(C#N)c(F)c2)cc1=O` [Example 108, 4-[2-(4-aminopiperidin-1-yl)-1-methyl-6-oxopyrimidin-4-yl]-2-fluorobenzonitrile] stands less than 100 nM.

Compound `Cn1c(N2CCC(N)CC2)nc(-c2ccc(C#N)c(F)c2)c(-c2cnn(CC(F)(F)F)c2)c1=O` [Example 34, 4-{2-(4-amino-piperidin-1-yl)-1-methyl-6-oxo-5-[1-(2,2,2-trifluoro-ethyl)-1H-pyrazol-4-yl]-1,6-dihydro-pyrimidin-4-yl}-2-fluoro-benzonitrile] came in with an IC50 of less than 100 nM. Under `Cn1c(N2CCC(N)CC2)nc(-c2ccc(C#N)cc2)c(-c2cnn(CC(F)(F)F)c2)c1=O` [Example 36, 4-{2-(4-amino-piperidin-1-yl)-1-methyl-6-oxo-5-[1-(2,2,2-trifluoro-ethyl)-1H-pyrazol-4-yl]-1,6-dihydro-pyrimidin-4-yl}-benzonitrile] stands less than 100 nM; under `CNC1CCN(c2nc(-c3ccc(C#N)c(F)c3)c(-c3ccc(OC)cc3)c(=O)n2C)CC1` [Example 11, 2-fluoro-4-[5-(4-methoxy-phenyl)-1-methyl-2-(4-methylamino-piperidin-1-yl)-6-oxo-1,6-dihydro-pyrimidin-4-yl]-benzonitrile], less than 100 nM.
